Assay results reported in patent publication US20110294728A1, “Antiviral Polypeptides” (priority 2008, published 2011).
Like-named read-outs stand apart in the source and are kept apart here. Where no end group is shown, it is not given here.

Experiments:
HIV-1 strain NDK = settings: peptide with Pep-1 or Pep-3 at ratio 20/1, combinations with Pep-3
HIV-1 strain 2165 = settings: peptide with Pep-1 or Pep-3 at ratio 20/1, combinations with Pep-3
HIV-1 strain 2914 = settings: peptide with Pep-1 or Pep-3 at ratio 20/1, combinations with Pep-3
HIV-1 strain BH10 = settings: peptide with Pep-1 or Pep-3 at ratio 20/1, combinations with Pep-3
HIV-1 strain RF = settings: strain RF (RP in Table 5); peptide with Pep-1 or Pep-3 at ratio 20/1; combinations with Pep-3
IN/DNA complexes [1] = target: T1, IN/DNA complexes (Human immunodeficiency virus type 1 group M subtype B, UniProt P04585); assay: DNA-binding of integrase, fluorescence anisotropy; format: biochemical, HIV-1
Procedure: The simultaneous measurement of integrase-DNA interaction and subsequent 3′-processing activity by steady-state fluorescence anisotropy was performed as described in Guiot et al. (2006). […] After the initial DNA-binding step (performed at 25° C.), the 3′-processing activity was measured at 37° C. by fixed-time experiments: The reaction was stopped at varying times by adding SDS (0.25% final) which disrupts all IN-DNA complexes in the sample. The IN-mediated cleavage of the terminal GT dinucleotide (labeled by fluorescein on the 3′-end) leads to a significant decrease of r as compared to the r value corresponding to the fluorescein-labeled unprocessed DNA substrate. The fraction of released dinucleotide is calculated by using Eq. (1): […]

IN/DNA complexes [2] = target: T1, IN/DNA complexes; assay: Dissociation of pre-formed IN-DNA substrate complexes; format: biochemical, HIV-1
Procedure: For dissociation experiments, IN-DNA substrate complexes were pre-formed at 25° C. before addition of peptides. The peptide-mediated dissociation of complexes was then studied at the same temperature by measuring the decrease in the r value as a function of time.

HIV-1 integrase = target: T2, HIV-1 integrase (Human immunodeficiency virus type 1 group M subtype B, UniProt P04585); assay: biochemical; format: binding
T2 construct: Integrase is a 32 kDA viral protein that is biologically active under a multimeric form
Procedure: Fluorescein-labeled peptides (40 nM) were mixed with varying concentrations of integrase in 20 mM Tris pH 7.2, 50 mM NaCl, 10 mM MgCl2, and the r values were recorded.
Effect of the different peptides on the integrase (IN) activity, DNA binding and IN/DNA dissociation were evaluated as described in Example III.1 above, using fluorescence polarization and anisotropy measurements. Binding constant of the peptide for IN was determined by steady state fluorescence and anisotropy.

wild type HIV 1 virus = assay: HIV propagation in Hu-PBL-SCID mice, wild type virus; format: in vivo, Hu-PBL-SCID transgenic mice; settings: 20 mg/kg; peptides formulated with CADY-2c/CADY-1S1; HIV-1 DNA copies in splenocyte extracts
Procedure: The potency of the peptides p27 (SEQ ID NO: 25) and p16 (SEQ ID NO: 19) was assessed in vivo following intravenous challenge of Hu-PBL-SCID transgenic mice (in which human (hu) peripheral blood leukocytes (PBLs) from healthy Epstein-Barr virus (EBV)-seropositive donors are injected into severe combined immunodeficiency (SCID) mice; Mosier et al., 1988). The mice (6 to 8 week-old male mice, 5 animals per group) were infected with wild type HIV 1 virus or efavirenz-resistance HIV strain harbouring K103N and N341V mutations on reverse transcriptase. Infected mice were treated with peptides formulated with the peptide vector CADY-2c (see above) in water at a ratio 1/20, and then particles were coated with 3% of CADY-1S1 (see above), as described in International Application WO 2007/069090. Particles were injected intravenously (100 μl) every 2 days for 1 week, then HIV-1 copy were quantified by quantitative PCR. Efavirenz (a non-nucleoside reverse transcriptase inhibitor; EFZ) was used a positive drug control.

HIV-1 strain 1650 = settings: peptide with Pep-1 or Pep-3 at ratio 20/1, combinations with Pep-3
HIV-1-LAI strain = test system: HIV-1-LAI strain
Procedure: The anti-HIV activities of the peptides were assayed according to the methods described in Roisin et al. (2004). Phytohemagglutinin-P(PHA-P)-activated peripheral blood mononuclear cells (PBMC) treated by increasing concentrations of peptide (from 100 to 0.1 nM), one hour later, were infected with hundred 50% tissue culture infectious doses (TCID50) per 100,000 cells of the HIV-1-LAI strain (Barre-Sinoussi et al., 1983). This virus was amplified in vitro on PHA-P-activated PBMC. Viral stock was titrated using PHA-P-activated PBMC, and 50% TCID50 were calculated using Kärber's formula (Kärber, 1931). Samples were maintained throughout the culture, and cell supernatants were collected at day 7 post-infection and stored at −20° C. Viral replication was measured by quantifying reverse transcriptase (RT) activity in cell culture supernatants. In parallel, cytotoxicity of the compounds was evaluated in uninfected PHA-P-activated PBMC by colorimetric 3-(4-5 dimethylthiazol-2-yl)2,5diphenyl tetrazolium bromite (MTT) assay on day 7 (as described in Mossmann, 1983). Experiments were performed in triplicate and repeated with another blood donor. Data analyses were performed using SofiMax® Pro 4.6 microcomputer software: percent of inhibition of RT activity or of cell viability were plotted vs concentration and fitted with quadratic curves; 50% effective doses (ED50) and cytotoxic doses (CD50) were calculated.
In order to avoid any limitation due to the poor ability of peptides to cross cellular membranes, they were associated to the peptide-based nanoparticle delivery system Pep-1 (SEQ ID NO: 29), at a 1/10 molar ratio.

[3] = read-out: EC50 HIV-1 lai, Table 10

Sequence | IC50 (HIV-1 strain NDK) [nM] | IC50 (HIV-1 strain 2165) [nM] | IC50 (HIV-1 strain 2914) [nM] | IC50 (HIV-1 strain BH10) [nM] | IC50 (HIV-1 strain RF) [nM] | EC50 (IN/DNA complexes [1]) [nM] | EC50 (IN/DNA complexes [2]) [nM] | Kd (HIV-1 integrase) [µM] | HIV propagation in vivo (in words) (wild type HIV 1 virus) | IC50 (HIV-1 strain 1650) [nM] | EC50 (HIV-1-LAI strain; [3]) [nM] | Kd (HIV-1 integrase; read-out: Kd IN binding, Table 10, cell prints μM) [µM] | EC50 (HIV-1-LAI strain; PBMC, HIV-1 LAI, day 7, /Pep-1 = associated to Pep-1 at 1/10 molar ratio) [nM] | IC50 (HIV-1-LAI strain; read-out: IC50, antiviral activity, text b123, peptide with Pep-1) [nM]
GTKWLTEVWPL [Peptide P16] | 2.9 | 2.7 | 1.7 | 5.9 | 10.9 | 8000 | 11000 | 0.12 | block HIV propagation in vivo | 7.5 | 5.9 |  |  | 
GTKWLTEWIPLTAE [Peptide P27] | 0.3 | 2.6 | 0.2 | 1.4 | 1.5 | > 100000 | > 100000 | > 100 | block HIV propagation in vivo | 0.8 | 0.21 | > 100 | > 1000 | < 0.32
